From patent publication US20230263822A1, “MODULATION OF FACTOR 11 EXPRESSION” (Ionis Pharmaceuticals, Inc., priority 2008, published 2023)
Strand notation (5' to 3'): a small letter for the sugar, then the base; units joined by * are phosphorothioate-linked, units joined directly phosphodiester-linked; [ ] holds rarer units or linkages, { } end groups; capitals alone tell only the bases. e = 2'-O-(2-methoxyethyl) (MOE); [5mC] = 5-methylcytosine; d = 2'-deoxy (DNA)

Legend:
Assay type in all cases: cell-based
human Factor 11 mRNA [1] = experiment: Dose-dependent inhibition of human Factor 11 in HepG2 cells, electroporation 0.7-20 uM (Example 4); conditions: for percent inhibition of Factor 11 at 0.7 μM / percent inhibition of Factor 11 at 2.2 μM / percent inhibition of Factor 11 at 6.7 μM / percent inhibition of Factor 11 at 20 μM: relative to untreated control cells
Procedure: (§1) The gapmers were also transfected via electroporation and their dose dependent inhibition of human Factor 11 mRNA was measured. Cells were plated at a density of 20,000 cells per well and transfected via electroporation with 0.7 μM, 2.2 μM, 6.7 μM, and 20 μM concentrations of antisense oligonucleotide, as specified in Table 10. After a treatment period of approximately 16 hours, RNA was isolated from the cells and Factor 11 mRNA levels were measured by quantitative real-time PCR. Human Factor 11 primer probe set RTS 2966 was used to measure mRNA levels. Factor 11 mRNA levels were adjusted according to total RNA content, as measured by RIBOGREEN. Results are presented as percent inhibition of Factor 11, relative to untreated control cells.

human Factor 11 mRNA [2] = experiment: Antisense inhibition of human Factor 11 in HepG2 cells by microwalk gapmers, lipofectin, 75 nM (Example 3)
In short: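 HepG2 cells (10,000/well) were transfected via lipofectin with 75 nM 20-mer MOE gapmers (phosphorothioate, 5-methyl-C) for about 24 h. Factor 11 mRNA was measured by qRT-PCR, normalized to RIBOGREEN total RNA, and given as percent inhibition versus untreated cells.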

human Factor 11 mRNA [3] = experiment: Dose-dependent inhibition of human Factor 11 in HepG2 cells, lipofectin 9.375-75 nM (Example 4); conditions: for percent inhibition of Factor 11 at 9.375 nM / percent inhibition of Factor 11 at 18.75 nM / percent inhibition of Factor 11 at 37.5 nM / percent inhibition of Factor 11 at 75 nM: relative to untreated control cells
Procedure: as §1, with “Cells” for “The gapmers were also transfected via electroporation and their dose dependent inhibition of human Factor 11 mRNA was measured. Cells”, “10,000” for “20,000”, “using lipofectin reagent” for “via electroporation”, “9.375 nM, 18.75 nM, 37.5 nM” for “0.7 μM, 2.2 μM, 6.7 μM,”, “75 nM” for “20 μM”, “9.” for “10.”

[4] = HepG2, lipofectin, ~24 h, gapmers targeted to nucleobases 656 to 704 of SEQ ID NO: 1
[5] = HepG2 cells, lipofectin, gapmers targeted to nucleobases 1275 to 1318 of SEQ ID NO: 1

| Substance | IC50 (human Factor 11 mRNA [1]) [nM] | percent inhibition of Factor 11 at 0.7 μM (human Factor 11 mRNA [1]) [%] | percent inhibition of Factor 11 at 2.2 μM (human Factor 11 mRNA [1]) [%] | percent inhibition of Factor 11 at 6.7 μM (human Factor 11 mRNA [1]) [%] | percent inhibition of Factor 11 at 20 μM (human Factor 11 mRNA [1]) [%] | % inhibition (human Factor 11 mRNA [2]; [4]) [%] | IC50 (human Factor 11 mRNA [3]) [nM] | percent inhibition of Factor 11 at 9.375 nM (human Factor 11 mRNA [3]) [%] | percent inhibition of Factor 11 at 18.75 nM (human Factor 11 mRNA [3]) [%] | percent inhibition of Factor 11 at 37.5 nM (human Factor 11 mRNA [3]) [%] | percent inhibition of Factor 11 at 75 nM (human Factor 11 mRNA [3]) [%] | % inhibition (human Factor 11 mRNA [2]; HepG2 cells, lipofectin, gapmers targeted to nucleobases 1018 to 1042 of SEQ ID NO: 1) [%] | % inhibition (human Factor 11 mRNA [2]; [5]) [%] |
| --- | --- | --- | --- | --- | --- | --- | --- | --- | --- | --- | --- | --- | --- |
| 416896 (antisense eT*eT*eA*dT*dG*d[5mC]*d[5mC]*d[5mC]*dT*dT*d[5mC]*dA*dT*dG*dT*d[5mC]*dT*eA*eG*eG) [compound 416896] | 3200 | 12 | 35 | 81 | 89 | 95 | 27 | 22 | 39 | 57 | 81 |  |  |
| 416908 (antisense eG*e[5mC]*eA*dA*d[5mC]*d[5mC]*dG*dG*dG*dA*dT*dG*dA*dT*dG*dA*dG*eT*eG*e[5mC]) [compound 416908] | 2800 | 7 | 58 | 74 | 89 |  | 16 | 36 | 57 | 67 | 76 | 98 |  |
| 416922 (antisense eG*e[5mC]*eA*d[5mC]*dA*dG*dT*dT*dT*d[5mC]*dT*dG*dG*d[5mC]*dA*dG*dG*e[5mC]*e[5mC]*eT) [compound 416922] | 1700 | 35 | 51 | 77 | 91 |  | 36 | 14 | 25 | 49 | 75 |  | 94 |
| 416923 (antisense eT*eG*e[5mC]*dA*d[5mC]*dA*dG*dT*dT*dT*d[5mC]*dT*dG*dG*d[5mC]*dA*dG*eG*e[5mC]*e[5mC]) [compound 416923] | 4000 | 15 | 30 | 60 | 90 |  | 23 | 36 | 47 | 60 | 67 |  | 96 |
| 416924 (antisense eG*eT*eG*d[5mC]*dA*d[5mC]*dA*dG*dT*dT*dT*d[5mC]*dT*dG*dG*d[5mC]*dA*eG*eG*e[5mC]) [compound 416924] | 4100 | 22 | 40 | 63 | 70 |  | 36 | 25 | 38 | 56 | 59 |  | 96 |
| 416926 (antisense eT*eG*eG*dT*dG*d[5mC]*dA*d[5mC]*dA*dG*dT*dT*dT*d[5mC]*dT*dG*dG*e[5mC]*eA*eG) [compound 416926] | 600 | 47 | 71 | 91 | 94 |  | 22 | 31 | 43 | 63 | 82 |  | 93 |
| 416931 (antisense eG*eG*e[5mC]*dA*dT*dT*dG*dG*dT*dG*d[5mC]*dA*d[5mC]*dA*dG*dT*dT*eT*e[5mC]*eT) [compound 416931] | 5100 | 7 | 24 | 60 | 82 |  | 22 | 44 | 39 | 57 | 71 |  | 96 |
| 416941 (antisense eG*eG*e[5mC]*dA*dG*d[5mC]*dG*dG*dA*d[5mC]*dG*dG*d[5mC]*dA*dT*dT*dG*eG*eT*eG) [compound 416941] | 3000 | 16 | 38 | 79 | 89 |  | 19 | 33 | 54 | 63 | 78 |  | 95 |
| 416945 (antisense eA*eA*dT*dG*dT*d[5mC]*dT*dT*dT*dG*dT*dT*dG*d[5mC]*dA*eA*eG*e[5mC]*eG*e[5mC]) [compound 416945] | 600 | 48 | 70 | 81 | 88 | 94 | 24 | 34 | 45 | 62 | 65 |  |  |
| 416969 (antisense eG*e[5mC]*d[5mC]*d[5mC]*dT*dT*d[5mC]*dA*dT*dG*dT*d[5mC]*dT*dA*dG*eG*eT*e[5mC]*e[5mC]*eA) [compound 416969] | 2500 | 25 | 34 | 86 | 92 | 80 | 28 | 17 | 39 | 61 | 76 |  |  |
| 416972 (antisense eT*eA*dT*dG*d[5mC]*d[5mC]*d[5mC]*dT*dT*d[5mC]*dA*dT*dG*dT*d[5mC]*eT*eA*eG*eG*eT) [compound 416972] | 4300 | 25 | 30 | 48 | 88 | 90 | 26 | 32 | 40 | 60 | 69 |  |  |
